Where “and” joins values, the source holds several entries; their conditions need not be identical. Identical values can stand only once. Like-named read-outs stand apart in the source and are kept apart here.
Key:
Sprague Dawley rats = details: rat; for Score (histopathology liver necrosis severity score): Sprague Dawley, 72 h; for Score (histopathology liver necrosis severity score) / Liver Necrosis: ip
Outline: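 Toxicity calls (necrosis present or absent at 72 h) and histopathology scores were correlated with tissue gene expression from Crl:CD Sprague Dawley rats. Animals, usually 3 treated with compound by i.p. route and 3 given vehicle, were killed at 6, 24 or 72 h and tissues frozen immediately in liquid nitrogen.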

[1] = system: toxicologically relevant rat genes (rat CT array)
[2] = 24 h, dose 1000, listed as APAP

SMILES: CC(=O)Nc1ccc(O)cc1 [acetaminophen]
- Score (histopathology liver necrosis severity score) (Sprague Dawley rats; in vivo, 250 mg/kg): 1
- Score (histopathology liver necrosis severity score) (Sprague Dawley rats; in vivo, 1000 mg/kg): 2
- toxicity at the high dose (Sprague Dawley rats; in vivo): produced toxicity
- Liver Necrosis (Sprague Dawley rats; in vivo, 250 mg/kg): no
- Liver Necrosis (Sprague Dawley rats; in vivo, 1000 mg/kg): Yes
- toxicity at the low dose (Sprague Dawley rats; low dose of Table 1, liver necrosis at 72 hours): not at the low dose
- Aflatoxin B1 aldehyde reductase expression (treatment/control) ([1]; 24 h): 3.687 and 4.607 and 5.763
- 3-hydroxyisobutyrate dehydrogenase expression (treatment/control) [1, 2]: 0.8093 and 0.6875 and 0.5181
- 14-3-3 zeta expression (treatment/control) [1, 2]: 1.279 and 1.34 and 2.193
- 25-DX expression (treatment/control) [1, 2]: 1.304 and 1.667 and 1.897
- 60S ribosomal protein L6 expression (treatment/control) [1, 2]: 1.31 and 2.123 and 2.39
- Alpha 1 - inhibitor III expression (treatment/control) [1, 2]: 0.4712 and 0.4696 and 0.2941
- Alpha-2-macroglobulin expression (treatment/control) [1, 2]: 0.5487 and 0.4873 and 0.3551
- Apolipoprotein CIII expression (treatment/control) [1, 2]: 0.702 and 0.753 and 0.464
- Bax (alpha) expression (treatment/control) [1, 2]: 1.285 and 1.306 and 1.621
- Calpactin I heavy chain expression (treatment/control) [1, 2]: 1.347 and 1.282 and 1.692
- Carbamyl phosphate synthetase I expression (treatment/control) [1, 2]: 0.7736 and 0.7076 and 0.6953
- Carbonyl reductase expression (treatment/control) [1, 2]: 1.218 and 1.144 and 1.992
- Cofilin expression (treatment/control) [1, 2]: 0.9081 and 0.9679 and 1.261
- DNA polymerase beta expression (treatment/control) [1, 2]: 0.8811 and 1.223 and 1.54
- Elongation factor-1 alpha expression (treatment/control) [1, 2]: 1.174 and 1.533 and 1.746
- Endogenous retroviral sequence, 5′ and 3′ LTR expression (treatment/control) [1, 2]: 1.114 and 1.112 and 1.648
- Enolase alpha expression (treatment/control) [1, 2]: 1.382 and 2.619 and 2.308
- Epidermal growth factor expression (treatment/control) [1, 2]: 0.7557 and 0.7312 and 0.6935
- Extracellular-signal-regulated kinase 1 expression (treatment/control) [1, 2]: 0.452 and 0.4073 and 0.261
- Fas antigen expression (treatment/control) [1, 2]: 1.77 and 1.618 and 2.162
- Gadd153 expression (treatment/control) [1, 2]: 1.15 and 1.234 and 2.2302
- Glucose-regulated protein 78 expression (treatment/control) [1, 2]: 1.949 and 2.017 and 1.914
- Hepatic lipase expression (treatment/control) [1, 2]: 0.5231 and 0.4276 and 0.3047
- ID-1 expression (treatment/control) [1, 2]: 1.004 and 1.038 and 1.388
- IgE binding protein expression (treatment/control) [1, 2]: 1.117 and 1.131 and 1.528
- IkB-a expression (treatment/control) [1, 2]: 1.268 and 1.662 and 1.76
- Insulin-like growth factor binding protein 3 expression (treatment/control) [1, 2]: 0.5707 and 0.5952 and 0.4059
- Liver fatty acid binding protein expression (treatment/control) [1, 2]: 0.4243 and 0.4268 and 0.229
- MAP kinase kinase expression (treatment/control) [1, 2]: 1.017 and 1.243 and 1.361
- Macrophage inflammatory protein-1 alpha expression (treatment/control) [1, 2]: 1.158 and 1.138 and 1.685
- Matrix metalloproteinase-1 expression (treatment/control) [1, 2]: 1.41 and 1.586 and 2.447
- Melanoma-associated antigen ME491 expression (treatment/control) [1, 2]: 1.011 and 1.114 and 1.656
- Monocyte chemotactic protein receptor (CCR2) expression (treatment/control) [1, 2]: 1.194 and 1.282 and 1.728
- NADPH quinone oxidoreductase-1 (DT-diaphorase) expression (treatment/control) [1, 2]: 2.511 and 2.716 and 4.842
- Nucleoside diphosphate kinase beta isoform expression (treatment/control) [1, 2]: 1.516
- Organic anion transporter 3 expression (treatment/control) [1, 2]: 0.7554 and 0.5816 and 0.5461
- Organic cation transporter 3 expression (treatment/control) [1, 2]: 1.215 and 1.663 and 2.064
- Ornithine decarboxylase expression (treatment/control) [1, 2]: 1.918 and 2.163 and 3.092
- Phase-1 RCT 252 expression (treatment/control) [1, 2]: 0.7905 and 0.6256
- Phase-1 RCT-12 expression (treatment/control) [1, 2]: 1.884
- Phase-1 RCT-33 expression (treatment/control) [1, 2]: 0.7278 and 0.4867
- Phase-1 RCT-36 expression (treatment/control) [1, 2]: 0.9342 and 0.7084
- Phase-1 RCT-37 expression (treatment/control) [1, 2]: 1.525 and 1.704
- Phase-1 RCT-38 expression (treatment/control) [1, 2]: 0.8079 and 0.6659 and 0.4284
- Phase-1 RCT-40 expression (treatment/control) [1, 2]: 0.3766
- Phase-1 RCT-48 expression (treatment/control) [1, 2]: 0.6762 and 0.5881
- Phase-1 RCT-65 expression (treatment/control) [1, 2]: 1.498
- Phase-1 RCT-68 expression (treatment/control) [1, 2]: 2.006
- Phase-1 RCT-72 expression (treatment/control) [1, 2]: 1.676
- Phase-1 RCT-78 expression (treatment/control) [1, 2]: 0.6314 and 0.4384
- Phase-1 RCT-83 expression (treatment/control) [1, 2]: 0.6151 and 0.4373 and 0.3263
- Phase-1 RCT-88 expression (treatment/control) [1, 2]: 0.5934 and 0.6891 and 0.4014
- Phase-1 RCT-92 expression (treatment/control) [1, 2]: 0.6478 and 0.6327 and 0.3995
- Phase-1 RCT-102 expression (treatment/control) [1, 2]: 0.4854 and 0.3992 and 0.2737
- Phase-1 RCT-109 expression (treatment/control) [1, 2]: 2.054 and 2.291
- Phase-1 RCT-123 expression (treatment/control) [1, 2]: 0.983
- Phase-1 RCT-127 expression (treatment/control) [1, 2]: 0.99 and 1.472
- Phase-1 RCT-137 expression (treatment/control) [1, 2]: 0.72 and 0.8264 and 0.5868
- Phase-1 RCT-145 expression (treatment/control) [1, 2]: 1.2 and 1.522 and 2.335
- Phase-1 RCT-152 expression (treatment/control) [1, 2]: 1.202 and 1.996 and 2.355
- Phase-1 RCT-154 expression (treatment/control) [1, 2]: 2.226
- Phase-1 RCT-162 expression (treatment/control) [1, 2]: 1.476
- Phase-1 RCT-168 expression (treatment/control) [1, 2]: 0.7401 and 0.471
- Phase-1 RCT-180 expression (treatment/control) [1, 2]: 1.523 and 1.839
- Phase-1 RCT-181 expression (treatment/control) [1, 2]: 0.6749
- Phase-1 RCT-185 expression (treatment/control) [1, 2]: 0.5075 and 0.4368 and 0.3225
- Phase-1 RCT-191 expression (treatment/control) [1, 2]: 1.498 and 2.514
- Phase-1 RCT-192 expression (treatment/control) [1, 2]: 1.606 and 1.812
- Phase-1 RCT-205 expression (treatment/control) [1, 2]: 1.793
- Phase-1 RCT-213 expression (treatment/control) [1, 2]: 1.607 and 2.134
- Phase-1 RCT-214 expression (treatment/control) [1, 2]: 0.7129 and 0.7249 and 0.4326
- Phase-1 RCT-242 expression (treatment/control) [1, 2]: 1.936
- Phase-1 RCT-258 expression (treatment/control) [1, 2]: 1.198 and 1.289 and 1.628
- Phase-1 RCT-264 expression (treatment/control) [1, 2]: 0.4839 and 0.3686
- Phase-1 RCT-271 expression (treatment/control) [1, 2]: 0.5952
- Phase-1 RCT-295 expression (treatment/control) [1, 2]: 1.409 and 1.586 and 1.993
- Phase-1 RCT-296 expression (treatment/control) [1, 2]: 0.4087 and 0.2215 and 0.347
- Pyruvate kinase, muscle expression (treatment/control) [1, 2]: 1.015 and 0.9969 and 1.833
- Ref-1 expression (treatment/control) [1, 2]: 1.85 and 2.112 and 3.617
- Ribosomal protein L13A expression (treatment/control) [1, 2]: 2.348 and 2.582
- Ribosomal protein S8 expression (treatment/control) [1, 2]: 1.864 and 2.055
- Sodium/bile acid cotransporter expression (treatment/control) [1, 2]: 0.7685 and 0.5902 and 0.8858
- Superoxide dismutase Mn expression (treatment/control) [1, 2]: 1.274 and 1.178 and 1.931
- T-cell cyclophilin expression (treatment/control) [1, 2]: 0.8846 and 1.322 and 1.491
- Thymosin beta-10 expression (treatment/control) [1, 2]: 1.285 and 1.383 and 1.788
- Transthyretin expression (treatment/control) [1, 2]: 0.427 and 0.4938 and 0.34
- Ubiquitin conjugating enzyme (RAD 6 homologue) expression (treatment/control) [1, 2]: 0.9549 and 1.282 and 1.558
- Uncoupling protein 2 expression (treatment/control) [1, 2]: 1.201 and 1.111 and 1.462
- c-H-ras expression (treatment/control) [1, 2]: 1.118 and 1.069 and 0.9092
- p53 expression (treatment/control) [1, 2]: 0.8979 and 1.176 and 1.584
- {Ribosomal protein L6} expression (treatment/control) [1, 2]: 1.978 and 2.321
- Multidrug resistant protein-1 expression (treatment/control) ([1]; rat, in vivo): 1.241 and 1.202 and 1.889
- Paraoxonase 1 expression (treatment/control) ([1]; rat, in vivo): 0.5292 and 0.4965 and 0.3855
